The results in this text go back to PMC9154192 (PLoS Biology, 2022).

Holding throughout (format): cell-based, Mycobacterium tuberculosis
The subject of test [1] is PP1S-resistant M. tuberculosis.
In test [2] the test system is PP2S-resistant M. tuberculosis.
The subject of another test is M. tuberculosis H37Rv. The conditions noted are these: at 200 μg/ml and above.

In brackets after ≈: the same amount, converted by molar mass.

The term MIC denotes the least concentration at which growth counts as inhibited. High values mean a need for much substance, low ones inhibition by little substance. Take `CC[C@@H](CO)NCCN[C@@H](CC)CO` [EMB, ethambutol]: the MIC in test [1] and in test [2] was 1.6 µg/mL (≈ 7.83 µM) throughout.
Regarding `NNC(=O)c1ccncc1` [INH, isoniazid, reference compound], the values for the MIC in test [1] and in test [2] were 0.2 µg/mL (≈ 1.46 µM) and 0.4 µg/mL (≈ 2.92 µM), respectively.
On to `COC(=O)[C@@H]1CCC(=O)N1Cc1cc2ccc(OC)cc2c2cc(OC)c(OC)cc12` [PP1S, (S)-N-[(2,3,6-Trimethoxy-10-phenanthryl)methyl]-pyroglutamic acid methyl ester], for which the MIC in test [1] and in test [2] was > 100 µg/mL each time.
`CCCCOc1ccc2cc(CN3C(=O)CC[C@H]3C(=O)OC)c3cc(OC)c(OC)cc3c2c1` [PP2S, Methyl (S)-1-((3-butoxy-6,7-dimethoxyphenanthren-9-yl)methyl)-5-oxopyrrolidine-2-carboxylate]: the MIC in test [1] and in test [2] was > 100 µg/mL each time. Besides, the “occurrence of resistant strains” value in the test on M. tuberculosis H37Rv is on record as “did not occur directly”.
Turning to `COC(=O)[C@@H]1CCC(=O)N1Cc1cc2ccc(OCc3ccccc3)cc2c2cc(OC)c(OC)cc12` [PP3S, Methyl (S)-1-{[3-(Benzyloxy)-6,7-dimethoxy-9-phenanthryl]methyl}-5-oxopyrrolidine-2-carboxylate], the MIC in test [1] and in test [2] was > 100 µg/mL in each case.
Consider `NC(=O)c1cnccn1` [PZA, pyrazinamide], for which the MIC in test [1] and in test [2] was > 100 µg/mL throughout.
Turning to `CO[C@H]1/C=C/O[C@@]2(C)Oc3c(C)c(O)c4c(O)c(c(/C=N/N5CCN(C)CC5)c(O)c4c3C2=O)NC(=O)/C(C)=C\C=C\[C@H](C)[C@H](O)[C@@H](C)[C@@H](O)[C@@H](C)[C@H](OC(C)=O)[C@@H]1C` [RIF, rifampicin, reference compound], the MIC is 0.1 µg/mL (≈ 0.122 µM) in test [1] and 0.2 µg/mL (≈ 0.243 µM) in test [2].
The like results for `[H]/N=C(/N)N[C@H]1[C@H](O)[C@@H](O)[C@H](O[C@@H]2O[C@@H](C)[C@](O)(C=O)[C@H]2O[C@@H]2O[C@@H](CO)[C@H](O)[C@@H](O)[C@@H]2NC)[C@@H](N/C(N)=N\[H])[C@@H]1O` [STR, streptomycin] were, in that order, 0.2 µg/mL (≈ 0.344 µM) and 0.4 µg/mL (≈ 0.688 µM).
